# Laboratory results reported in US20180344758A1, “Method of Treating Cancer with cGAMP or cGAsMP” (LIPOGEN LLC, priority 2014, published 2018).
# Tests used:
# IFN-β [1] = test: IFN-β ELISA of THP1 culture supernatant; conditions: for IFN-β levels in the culture supernatant by ELISA, response: THP1 cells (FIG. 3B); for IFN-β production: THP1 cells (FIGS. 13A-B)
# Source text: (§1) To confirm that cGAMP can induce the expression of IFN-β, we stimulated human monocytes THP1 blue cells with cGAMP and other three cyclic dinucleotides added to the culture media.
# IFN-β reporter = IFN-β reporter assay in THP1 blue cells; conditions: for inducing the expression of IFN-β reporter: THP1 blue cells, cyclic dinucleotides added to the culture media (FIG. 3A)
# Source text: as §1
# [2] = tested on: renal cancer cell line A498; test: MTT assay, A498; conditions: FIG. 6B
# Procedure: (§2) MTT solution: 5 mg/mL Thiazolyl Blue Tetrazolium Bromide (MTT) in PBS. The solution was filter sterilized after adding MTT and stored at −20° C.; MTT solvent: 4 mM HCl, 0.1% Nondet P-40 (NP40) in isopropanol. cGAMP or cGAsMP solutions: 10-30 mg/ml in PBS, filter sterilized using a 0.2 μm filter. • B. MTT Assay for Attaching Cancer Cell Lines SF539, U251, A498, and ACHN
# On day one, one T-25 flask was trypsinized and 5 ml of complete media was added to the cells. The cells and media were centrifuged in a sterile 15 ml falcon tube at 300×g rcf in the swinging bucket rotor for 5 min. […] Cells were counted and recorded per ml. Cells were diluted (cv=cv) to 75,000 cells per ml with complete RPMI media. 100 μl of cells (7500 total cells) were added into each well of a 96 well plate and incubated overnight. 24 hours later, 100 μl of medium or cGAMP or cGAsMP solutions were added to each well. On the fifth day, 20 μl of 5 mg/ml MTT were added to each well. One set of wells with MTT but no cells served as a control. All steps were done aseptically. The wells were incubated for 3.5 hours at 37° C. in a CO2 incubator. Media was carefully removed, taking care not to disturb the cells. No PBS rinse was performed. 150 μl MTT solvent was added. The plate was covered with foil and cells agitated on orbital shaker for 15 min. The absorbance was measured at 590 nm using a plate reader. […]
# cytokines and chemokines = test: Multiplex cytokine assays in THP1 cells
# [3] = tested on: CNS cancer cell line SF539; test: NCI60 antitumor screen, SF539; conditions: single dose of 10 μM
# [4] = tested on: IFN-β in control cell lines; test: IFN-β induction in control cell lines; conditions: two control cell lines tested (FIG. 7)
# [5] = tested on: genome-wide gene expression; test: Microarray analysis of gene expression in THP1 cells; conditions: 20 μg/ml, 4 hours and 8 hours post treatment (FIG. 5)
# [6] = tested on: IFN-β in renal cancer cell line A498; test: IFN-β induction in A498; conditions: FIG. 7A
# [7] = tested on: leukemia cell line CCRF-CEM; test: MTT assay, CCRF-CEM; type: cell-based, human; conditions: control leukemia cell line (FIG. 8)
# IFN-β [8] = conditions: intravenous (i.v.) injection, 100 μg/mice, sera ELISA (FIG. 3C)
# Source text: FIG. 3C is an IFN-β ELISA of sera from mice injected with cGAMP.
# [9] = tested on: IFN-β in CNS cancer cell line SF539; test: IFN-β induction in SF539; conditions: FIG. 7B
# leukemia cell line SR [10] = test: NCI60 antitumor screen, SR; conditions: single dose of 10 μM
# NF-κB = NF-κB reporter assays
# [11] = tested on: MMTV-BALB-neuT mouse mammary tumors; test: MMTV-BALB-neuT spontaneous breast cancer model; conditions: 0.1 mg per mouse intra-tumor once a day for three days; day 4 post-treatment; p value of 0.0009 (FIG. 15D)
# Procedure: Comparisons were made between vehicle (veh.) and cGAMP treatment. The tumor growth was monitored for 4 days and growth rate was examined using serial caliper measurements. The tumor volume was calculated using the equation (a×b^2)/2 where “a” and “b” are length and width of the tumor, respectively. At the completion of the experiments, tumors were excised and statistical significance of differences in tumor volume was analyzed.
# leukemia cell line SR [12] = test: MTT assay, SR; type: cell-based, human
# [13] = tested on: neuronal cancer cell line SF539; test: MTT assay, SF539
# Procedure: as §2
# On day one, one T-25 flask was trypsinized and 5 ml of complete media was added to the cells. The cells and media were centrifuged in a sterile 15 ml falcon tube at 300×g rcf in the swinging bucket rotor for 5 min. […] Cells were counted and recorded per ml. Cells were diluted (cv=cv) to 75,000 cells per ml with complete RPMI media. 100 μl of cells (7500 total cells) were added into each well of a 96 well plate and incubated overnight. 24 hours later, 100 μl of medium or cGAMP or cGAsMP solutions were added to each well. On the fifth day, 20 μl of 5 mg/ml MTT were added to each well. One set of wells with MTT but no cells served as a control. All steps were done aseptically. The wells were incubated for 3.5 hours at 37° C. in a CO2 incubator. Media was carefully removed, taking care not to disturb the cells. No PBS rinse was performed. 150 μl MTT solvent was added. The plate was covered with foil and cells agitated on orbital shaker for 15 min. The absorbance was measured at 590 nm using a plate reader. Each assay was repeated five times. • C.
# [14] = tested on: renal cancer cell line A498; test: NCI60 antitumor screen, A498; conditions: single dose of 10 μM
smiles,measurement,setting,value
"Nc1nc2c(ncn2[C@@H]2O[C@@H]3COP(=O)(O)O[C@H]4[C@@H](O)[C@H](n5cnc6c(N)ncnc65)O[C@@H]4COP(=O)(O)O[C@H]3[C@H]2O)c(=O)[nH]1 [3′,5′ cGAMP, reference compound]","IFN-β levels in the culture supernatant by ELISA, response",IFN-β [1],much weaker
same,inducing the expression of IFN-β reporter,IFN-β reporter,lower activity
"Nc1nc2c(ncn2[C@@H]2O[C@@H]3COP(=O)(O)O[C@H]4[C@@H](O)[C@H](n5cnc6c(N)ncnc65)O[C@@H]4COP(=O)(O)O[C@@H]2[C@@H]3O)c(=O)[nH]1 [cGAMP, 2′,5′ cGAMP]","growth suppression, MTT",[2],suppresses the growth
same,expression of IL-1β,cytokines and chemokines; THP1 cell,does not up-regulate
same,"expression of IL-8, TNF-α, GROα, IP-10, MCP-1, MCP-2, and RANTES",cytokines and chemokines; THP1 cell (FIG. 4),up-regulation
same,growth inhibition,[3],effectively inhibited the growth
same,induction of IFN-β,[4],quite low
same,number of genes up-regulated,[5],over 200 genes
same,"IFN-β levels in the culture supernatant by ELISA, response",IFN-β [1],rapid responses
same,IFN-β production,IFN-β [1],can induce
same,time at which induction of IFN-β peaked,"IFN-β [1]; THP1 cells, ELISA (FIG. 3B)",8-10 hours post stimulation
same,induction of IFN-β,[6],induces IFN-β
same,"response of cell line to treatment, MTT",[7],did not respond
same,induction of IFN-β in mice,IFN-β [8],rapid responses
same,induction of IFN-β,[9],induces IFN-β
same,growth inhibition,leukemia cell line SR [10],effectively inhibited the growth
same,activation of NF-κB,NF-κB,stimulate the activation of NF-κB
same,tumor growth and tumor size,[11],effective for both reducing tumor growth and reducing tumor size
same,inducing the expression of IFN-β reporter,IFN-β reporter,very potent
same,"response of cell line to treatment, MTT","leukemia cell line SR [12]; FIG. 8A (cGAMP), FIG. 8B (IFN-β)",responds strongly
same,"antitumor activity, MTT",leukemia cell line SR [12]; FIG. 14B,have antitumor activity
same,"growth suppression, MTT",[13]; FIG. 6A,suppresses the growth
same,"antitumor activity, MTT",[13]; FIG. 14A,have antitumor activity
same,growth inhibition,[14],effectively inhibited the growth
"Nc1nc2c(ncn2C2OC3COP(=O)(O)OC4C(COP(O)(=S)OC2C3O)OC(n2cnc3c(N)ncnc32)C4O)c(=O)[nH]1 (stereo not shown) [cGAsMP, 2′5′-cGAsMP]",IFN-β production,IFN-β [1],can induce
same,IFN-β levels relative to cGAMP,"IFN-β [1]; THP1 cells, 5 and 25 μg/ml, ELISA (FIG. 13A)",5-10 times
same,"potency in inducing IFN-β reporter gene expression, compared","IFN-β reporter; THP1 cells, 0.2 to 25 μg/ml (FIG. 13B)",more potent than cGAMP
same,"antitumor activity, MTT",leukemia cell line SR [12]; FIG. 14B,have antitumor activity
same,impact on cell viability compared with cGAMP,leukemia cell line SR [12]; FIG. 14B,generally a bigger impact on cell viability at lower concentrations
same,"antitumor activity, MTT",[13]; FIG. 14A,have antitumor activity
same,impact on cell viability compared with cGAMP,[13]; FIG. 14A,generally a bigger impact on cell viability at lower concentrations
